{"source": "patent US20180049996A1", "about": "“THERAPEUTIC AGENT FOR CHRONIC RESPIRATORY DISEASE AND COMPOSITION FOR INHIBITING CARDIAC FIBROSIS” (NIPPON HYPOX LABORATORIES INCORPORATED, priority 2015, published 2018)", "key": {"[1]": {"system": "Lung Inflammation Induced by Tobacco Smoke", "experiment": "BAL inflammatory cell numbers, lung inflammation induced by tobacco smoke (COPD model)", "assay_type": "in vivo, C57BL/6N mice", "details": "HTHQ 10 and 20 mg/kg/day oral; tobacco smoke 10 days + LPS; compared to COPD model group", "protocol": "(§1) 6 week old male SPF C57BL/6N mice, 20 to 25 g of body weight, were purchased from CORETEC INC. (South Korea).\nThe tests were conducted as follows. The mice in the COPD (chronic obstructive pulmonary disease) model group of the test groups were exposed to tobacco smoke for 1 hour per day (8 cigarettes/day) for 10 days and LPS (5 μg/50 μL/mouse) was intranasally administered to the mice on day 8 after the start of the tests. Roflumilast, the positive control substance, was orally administered to the mice in the positive control substance-administered group at 10 mg/kg body weight/day, and then they were exposed to tobacco smoke for 10 days starting from 1 hour after the administration of roflumilast, and LPS (5 μg/50 μL/mouse) was intranasally administered to the mice on day 8 after the start of the tests. […]\n(§2) The mice in the test groups were euthanized 72 hours after the LPS administration and the mice in the normal control group were euthanized on day 11 after the start of the tests by intraperitoneal injection of pentobarbital (Hanrimu pharmaceutical, South Korea) at 50 mg/kg and then the bronchi were excised. […] After preparing slide samples from 100 μL of BAL cell fluid using Cytospin (4° C., 1000 rpm×5 min), the cell numbers of inflammatory cells (neutrophil, macrophages) present in the BAL fluid were counted using a Diff-Quik stain kit."}, "TNF-α": {"system": "TNF-α", "experiment": "TNF-α level in BAL fluid (ELISA), COPD model", "assay_type": "in vivo, C57BL/6N mice", "details": "HTHQ 10 and 20 mg/kg/day oral; tobacco smoke 10 days + LPS; compared to COPD model group", "protocol": "as §1\nThe tests were conducted as follows. The mice in the COPD (chronic obstructive pulmonary disease) model group of the test groups were exposed to tobacco smoke for 1 hour per day (8 cigarettes/day) for 10 days and LPS (5 μg/50 μL/mouse) was intranasally administered to the mice on day 8 after the start of the tests. […]\nas §2\nThe supernatant of the BAL fluid stored was taken out of the super-cryostat, and TNF-α and IL-6 levels were measured as the levels of pro-inflammatory cytokines in the supernatant. A quantitative ELISA kit (a product from Invitrogen) and an ELISA analyzer (a product from Molecular Devices, LLC.) were used for the measurement and the measurement wavelength was 450 nm."}, "[2]": {"system": "Lung Inflammation Induced by Tobacco Smoke", "experiment": "Histopathologic examination of lungs, COPD model", "assay_type": "in vivo, C57BL/6N mice", "details": "HTHQ 10 and 20 mg/kg/day oral; tobacco smoke 10 days + LPS; compared to COPD model group", "protocol": "as §1\nThe tests were conducted as follows. The mice in the COPD (chronic obstructive pulmonary disease) model group of the test groups were exposed to tobacco smoke for 1 hour per day (8 cigarettes/day) for 10 days and LPS (5 μg/50 μL/mouse) was intranasally administered to the mice on day 8 after the start of the tests. Roflumilast, the positive control substance, was orally administered to the mice in the positive control substance-administered group at 10 mg/kg body weight/day, and then they were exposed to tobacco smoke for 10 days starting from 1 hour after the administration of roflumilast, and LPS (5 μg/50 μL/mouse) was intranasally administered to the mice on day 8 after the start of the tests. Here, roflumilast is a selective phosphodiesterase 4 inhibitor and is a substance which is used as a therapeutic agent of COPD and asthma (approved in Europe and the United States, not approved in Japan). […] All the animals were euthanized on day 11 and bronchoalveolar lavage (BAL) examination and histopathologic examination of lungs were conducted. The mice in the normal control group and the test groups were fed sterile tap water and standard food for rodents during the test period. […]"}, "IgE": {"system": "IgE", "experiment": "Total content of IgE in serum, ovalbumin asthma model", "assay_type": "in vivo, BALB/c female mice", "details": "day 25, compared to OVA group", "protocol": "(§3) 6 week old BALB/c female mice were purchased and the mice were divided into 5 groups with 5 animals per group shown in Table 3 below after habituation breeding of about 2 weeks.\n(§4) The test was conducted on the schedule of sensitization, causing diseases and administration of test materials shown in FIG. 12. “IP” in FIG. 12 refers to ovalbumin sensitization treatment by the intraperitoneal administration of ovalbumin/aluminum hydroxide, and “IH” refers to inhalation exposure treatment of ovalbumin, and “PO” refers to the administration of the test materials. Specifically, 200 μL of PBS (pH 7.4) emulsified by the addition of 20 μg ovalbumin and 2 mg aluminum hydroxide as an adjuvant was intraperitoneally administered to all mice in 4 groups except the normal control group (the initial sensitization, day 1 of the test). Then, after 2 weeks (day 14 of the test), the second sensitization treatment was conducted in the same way as the initial sensitization. […]\n(§5) On day 25 of the test, the total contents of IgE and contents of ovalbumin-specific IgE in serums were measured using blood collected from orbital sinuses of the mice. An ELISA kit for IgE measurement (a product from BioLegend, Inc.) was used for the measurement and the contents were measured at wavelength of 450 nm using a micro plate reader (a product from Bio-Rad Laboratories, Inc.)."}, "ovalbumin-specific IgE": {"system": "ovalbumin-specific IgE", "experiment": "Content of ovalbumin-specific IgE in serum, ovalbumin asthma model", "assay_type": "in vivo, BALB/c female mice", "details": "HTHQ 20 and 40 mg/kg/day oral; day 25; no significant difference", "protocol": "as §3, §4, §5"}}, "data": [{"molecule": "CCCCCCOc1cc(C)c(O)c(C)c1C", "note": "[HTHQ, 2,3,5-trimethylhydroquinone-1-hexyl ether]", "values": [{"measurement": "infiltration of inflammatory cells (neutrophil, macrophages) in BAL fluid", "setting": "[1]", "value": "effectively reduced"}, {"measurement": "TNF-α level in BAL fluid", "setting": "TNF-α", "value": "effectively reduced"}, {"measurement": "infiltration of inflammatory cells in peribronchial lung tissue (HE stain)", "setting": "[2]", "value": "significantly reduced in a dose-dependent manner"}, {"measurement": "total amount of IgE in serum", "setting": "IgE; HTHQ 20 mg/kg/day oral (HTHQ20)", "value": "significant reduction"}, {"measurement": "total amount of IgE in serum", "setting": "IgE; HTHQ 40 mg/kg/day oral (HTHQ40)", "value": "a declining trend"}, {"measurement": "amount of ovalbumin-specific IgE in serum", "setting": "ovalbumin-specific IgE", "value": "a declining trend was seen"}]}]}
